The values below come from patent publication EP1192182B1, “PITUITARY ADENYLATE CYCLASE ACTIVATING PEPTIDE (PACAP) RECEPTOR 3 (R3) AGONISTS AND THEIR PHARMACOLOGICAL METHODS OF USE” (priority 1999, dated 2001).

Starred links: 1 amine or outer side, 2 acyl side, 3 side chain; linkers in the order of their positions; H or OH if unused. Non-standard residues stand in square brackets, D forms with d. Residues, ends and D or L forms follow the SMILES beside them. No end group written: not given here. Tyr(Me) = O-methyl-Tyr (CH3O-Y), COc1ccc(C[C@H](N[*:1])C(=O)[*:2])cc1; Nle = CCCC[C@H](N)C(=O)O

Data set [1] addresses T1, PACAP-R3 (Homo sapiens, UniProt P41587).
T1 sequence (P41587 24-438): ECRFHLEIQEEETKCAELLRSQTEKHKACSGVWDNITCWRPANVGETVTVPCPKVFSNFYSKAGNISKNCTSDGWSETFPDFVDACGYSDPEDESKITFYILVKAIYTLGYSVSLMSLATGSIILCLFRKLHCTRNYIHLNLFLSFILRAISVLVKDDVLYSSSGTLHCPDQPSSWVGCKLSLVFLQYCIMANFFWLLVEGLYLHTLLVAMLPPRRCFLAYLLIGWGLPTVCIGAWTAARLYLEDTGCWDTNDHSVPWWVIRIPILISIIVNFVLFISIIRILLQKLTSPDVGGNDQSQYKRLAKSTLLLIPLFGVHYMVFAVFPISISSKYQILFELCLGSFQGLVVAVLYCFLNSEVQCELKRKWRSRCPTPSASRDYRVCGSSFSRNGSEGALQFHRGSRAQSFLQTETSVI
Put plainly: Cyclic AMP SPA on CHO cells expressing PACAP R3. The note with it: cAMP SPA, CHO cells transfected with PACAP-R3; EC50 = concentration at which 50% of maximum PACAP27 activity is achieved; NA = no detectable activities. Format: cell-based. More on the design: expressed in transfected cells; host or cells: CHO cells. As for the experimental part:
(§1) CHO cells expressing the PACAP R3 were plated in 96-well plates (Costar) at 8 x 10^4 cell/well and grown at 37C for 24 hours in a MEM + nucleosides + glutamine (Giobco BRL), 10% FBS, 100 µg/ml Pen/Strep, 0.3 mg/ml glutamine, 1 mM HEPES, 0.5 mg/ml Geneticin (Gibco BRL). The media was removed and the plates were washed with PBS. The cells were incubated with a peptide, in Hepes-PBS-BSA with 0.4mg/mlSoybean Trypsin inhibitor, 0.5 mg/ml Bacitracin, 100uM IBMX, for 15 min at 37 C. Cyclic AMP in the ceii extracts was quantitated using the cAMP SPA direct screening assay system (Amersham Pharmacia Biotech Inc, Piscataway, NJ,). The peptides shown in Table 3 were assayed for cAMP activity.
(§2) EC50 is defined as the concentration of the polypeptide at which 50% of maximum PACAP27 activity is achieved. "NA" denotes no detectable activities. "R3 Selectivity" is derived from the ratio of EC50 at R2 versus EC50 at R3. […]

In the next data set the target is T2, PACAP-R2 (Homo sapiens, UniProt P32241).
T2 construct: expressed in transfected cells; host or cells: CHO cells
T2 sequence (P32241 31-457): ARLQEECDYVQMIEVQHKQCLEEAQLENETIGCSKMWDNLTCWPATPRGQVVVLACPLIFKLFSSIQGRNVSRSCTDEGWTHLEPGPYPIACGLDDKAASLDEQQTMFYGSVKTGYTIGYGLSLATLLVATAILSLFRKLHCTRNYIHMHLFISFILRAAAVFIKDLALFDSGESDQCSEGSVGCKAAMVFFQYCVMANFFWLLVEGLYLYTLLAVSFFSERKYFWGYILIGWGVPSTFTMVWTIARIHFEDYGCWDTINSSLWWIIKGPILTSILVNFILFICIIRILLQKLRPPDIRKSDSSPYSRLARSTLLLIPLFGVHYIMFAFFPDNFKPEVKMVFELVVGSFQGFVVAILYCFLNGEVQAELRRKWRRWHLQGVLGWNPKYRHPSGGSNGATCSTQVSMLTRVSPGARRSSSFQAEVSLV
Put plainly: Cyclic AMP SPA on CHO cells transfected with PACAP-R2. In kind it is cell-based. The note with it: cAMP SPA, EC50 = concentration at which 50% of maximum PACAP27 activity is achieved, NA = no detectable activities. How it is done: as §1, §2

A short description of data set [2]: Peptide-induced elevation of plasma insulin after IVGTT. Format: in vivo. The note with it: one minute after IVGTT (0.4g/kg glucose), 1 nmole/kg peptide i.v., Wistar rats. As for the experimental part: Wistar rats are fasted overnight (17 hrs) and then anesthetized with pentobarbital (0.1 ml/100 g BW). Glucose (0.4 g/kg dissolved in 1% human albumin-saline) +/- peptide (dissolved in 1% human albumin-saline) is injected intravenously into the tail vein. The rats are eye-bled 1 minute after the injection and 50-100ul of the plasma are assayed for insulin level with the Linco RIA kit (Linco Research, Inc., St. Charles, MO).
(§3) In accordance with the protocol of example 2 above, overnight fasted Wistar rats were anesthetized with pentobarital; i.v. injected with glucose ± peptide and eye bled after 1 minute. N=12 rats/group. […] The peptide or vehicle was given i.v. followed by a glucose load given i.p. in accordance with example 3. The plasma glucose was followed over the time period indicated.
Plasma insulin: Data are expressed as % of plasma insulin one minute after IVGTT (0.4g/kg glucose) with either saline, 0.1nmol/kg P51, P55, P60, P66 or 1 nmole/kg of the other peptides including peptides which are not part of the present invention in Wistar rats. Blood was drawn from the eye and insulin was measured with the rat insulin RIA kit (Linco Research, Inc, St. Charles, MO).

Data set [3] has as its target T1, PACAP-R3. The note with it: literature; cited from earlier work.
The test system of another data set is rat islets. Put plainly: Insulin release from isolated rat islets. In kind it is cell-based, Sprague-Dawley rats. The note with it: peptide 10nM for 2hrs, 8mM glucose; % of [insulin] in 8mM glucose alone. As for the experimental part: Sprague Dawley rats (275-320 g) were used as the source of donor islets. Briefly, the pancreas was filled with 10 ml of cold reconstituted Liberase RI (Boehringer Manheim), harvested and incubated with additional 5 ml enzyme solution in water bath for 30 minutes. Tissue suspension was washed twice with cold 10% FBS/Hanks buffer (Gibco), resuspended in 8 ml 25% ficoll (Sigma) and then layered with 5 ml each of 23%, 20% and 11 % ficoll. The islets in the 20% layer after centrifugation were removed, washed twice with cold 10% FBS/Hank buffer and resuspended in 10% FBS/RPMI 1640 media (Sigma).
Islet insulin release: Rat islets were isolated from Sprague-Dawley rats as described in example 1 and treated with either vehicle or specified peptide (10nM) for 2hrs. Insulin concentration in the medium was measured with the Linco rat insulin RIA kit. Glucose concentration in the medium was 8mM. The data are expressed as % of [insulin] in 8mM glucose alone. No polypeptide-induced Increases in insulin concentration were observed al 3 mM glucose; thus, the insulin releasing activity of these polypeptides are glucose-dependent. It should be noted that the following Table includes data for polypeptides which are not part of the present invention.

A short description of data set [4]: Intraperitoneal glucose tolerance test (IPGTT), plasma glucose. Format: in vivo, Wistar rats. The note with it: for Plasma Glucose (% of Basal) i.v.: 1 nmol/kg peptide i.v.; for glucose disposal in the rat: 1 nmole/kg dose, subcutaneous route, FIG. 7 legend. As for the experimental part: Wistar rats are fasted overnight and then anesthetized with pentobarbital. The rats were eye-bled (zero time) and the peptide ( in 1% human albumin) was injected into the tail vein. Five minutes later, 1 g/kg of glucose (in saline) was injected intraperitoneally, and the rats were eye-bled after 15, 30 and 60 minutes. Plasma glucose levels were determined using the Technicon Axon autoanalyzer, Bayer Diagnosics division of Bayer Corporation, Tarrytown NY, operated using Method No. SM4-2143F90 "Glucose".
as §3
Wistar rats were fasted overnight and then anesthetized with Pentobarbital. The rats were eye-bled (zero time) and the peptide (in 1 % human albumin) was injected subcutaneously. Five minutes later, 1 g/kg of glucose (in saline) was injected intraperitoneally, and the rats were eye-bled after 30 minutes.
Plasma glucose: Data are expressed as % of vehicle of plasma glucose area under the curve after IPGTT (1 g/kg glucose) after treatment with 1 nmol/kg dose of the peptide. […] The present Inventors have shown for the first time that this is because the effects of R2 and R3 on glucose tend to cancel each other out. […] Therefore, R3-selectlvlty appears to be a desirable attribute for medicaments which are to be employed in achieving blood glucose reduction, for treatment of type 2 diabetes.

For data set [5] the following is noted: in vivo; cited from earlier work.
Data set [6] in a line: Heart rate in conscious dogs. The note with it: i.v., AUC of first 10 minutes of heart rate change. How it is done: Beagle dogs were put into a sling where they have been trained to stand for up to 3 hours. The cuff of the heart rate monitor was placed around the tail of the dog.
Saline was injected into the cephalic vein and heart rate monitored every 2 minutes to establish a baseline. After 10 minutes, peptide, including peptides which are not part of the invention, was injected and heart rate monitored every 2 minutes for the next 20 minutes. If heart rate was normal at that time, a higher dose was given and heart rate monitored for 20 minutes.

Where [7] appears, read: plasma glucose area under the curve after IPGTT (1 g/kg glucose), % of vehicle.

A word on the EC50: it is the concentration needed to bring the measured effect to its halfway point. On to `CC[C@H](C)[C@H](NC(=O)CNC(=O)[C@H](CC(=O)O)NC(=O)[C@H](CO)NC(=O)[C@@H](N)Cc1c[nH]cn1)C(=O)N[C@@H](Cc1ccccc1)C(=O)N[C@H](C(=O)N[C@@H](CC(=O)O)C(=O)N[C@@H](CO)C(=O)N[C@@H](CCCCN)C(=O)N[C@@H](CO)C(=O)N[C@@H](CCCNC(=N)N)C(=O)N[C@@H](Cc1ccc(O)cc1)C(=O)N[C@@H](CCCNC(=N)N)C(=O)N[C@@H](CCCCN)C(=O)N[C@@H](CCC(N)=O)C(=O)N[C@@H](CCSC)C(=O)N[C@@H](C)C(=O)N[C@H](C(=O)N[C@@H](CCCCN)C(=O)N[C@@H](CCCCN)C(=O)N[C@@H](Cc1ccc(O)cc1)C(=O)N[C@@H](CC(C)C)C(=O)N[C@@H](C)C(=O)N[C@@H](C)C(=O)N[C@H](C(=O)N[C@@H](CC(C)C)C(N)=O)C(C)C)C(C)C)[C@@H](C)O` [PAC10], for which the concentration giving a half-maximal response (EC50) at PACAP-R3 [1] amounted to 27 nM; on PACAP-R2, 110 nM.
With `CC(C)C[C@H](NC(=O)[C@H](CCC(N)=O)NC(=O)[C@H](CCCCN)NC(=O)[C@H](CCCNC(=N)N)NC(=O)[C@H](CC(C)C)NC(=O)[C@H](CCCCN)NC(=O)[C@@H](NC(=O)[C@H](Cc1ccc(O)cc1)NC(=O)[C@H](CC(N)=O)NC(=O)[C@H](CCC(=O)O)NC(=O)[C@@H](NC(=O)[C@H](Cc1ccccc1)NC(=O)[C@@H](NC(=O)[C@H](C)NC(=O)[C@H](CC(=O)O)NC(=O)[C@H](CO)NC(=O)[C@@H](N)Cc1c[nH]cn1)C(C)C)[C@@H](C)O)[C@@H](C)O)C(=O)N[C@@H](C)C(=O)N[C@@H](C)C(=O)N[C@@H](CCCCN)C(=O)N[C@@H](CCCCN)C(=O)N[C@@H](Cc1ccc(O)cc1)C(=O)N[C@@H](CC(C)C)C(=O)N[C@@H](CC(N)=O)C(=O)N[C@@H](CC(=O)O)C(=O)N[C@@H](CC(C)C)C(=O)N[C@@H](CCCCN)C(=O)N[C@@H](CCCCN)C(=O)NCC(=O)NCC(=O)N[C@H](C(=O)N[C@@H](CO)C(=O)N[C@@H](Cc1c[nH]c2ccccc12)C(=O)N[C@@H](CS)C(=O)N[C@@H](CCC(=O)O)C(=O)N1CCC[C@H]1C(=O)NCC(=O)N[C@@H](Cc1c[nH]c2ccccc12)C(=O)N[C@@H](CS)C(=O)N[C@@H](CCCNC(=N)N)C(=O)O)[C@@H](C)O` [Peptide R3P19] (H-HSDAVFTENYTKLRKQLAAKKYLNDLKKGGTSWCEPGWCR-OH; C-terminus assumed), the “Plasma Insulin (% of Basal)” value in data set [2] is on record as 285 % of Basal.
Turning to “Ac-HSDAVFTEN(CH3O-Y)TKLRKQNIeAAKKYLNDLKK-NH2 (Ac-HSDAVFTEN[Tyr(Me)]TKLRKQ[Nle]AAKKYLNDLKK-NH2) [Peptide R3P4]”, in the data set with PACAP-R3 [3], the PACAP-R3 selectivity result is on record as “greater than 100 fold”.
Turning to “Ac-HSDAVFTENYTKLRKQLAAKKYLNDLKKGGT-NH2 [Peptide R3P1]”, the “Islet Insulin Release (% of Basal)” value in the data set on rat islets is 250 % of Basal. In addition, the “Plasma Insulin (% of Basal)” value in data set [2] is listed as 480 % of Basal. Moreover, the “Plasma Glucose (% of Basal) i.v.” value in data set [4] (setting [7]) is reported as 73 % of Basal.
Turning to “HAEGTFTSDV SSYLEGQAAK EFIAWLKGR-NH2 [GLP-1]”, the “glucose disposal in the rat” value in data set [4] is given as “enhance glucose disposal”. Further, the plasma half-life result in data set [5] is given as “a few minutes”.
As for “HSDAVFTDNYTRLRKQLAAKKYLNDIKK-NH2 [Peptide R3P13]”, in the data set with rat islets, the “Islet Insulin Release (% of Basal)” value was 170 % of Basal. In data set [2], the “Plasma Insulin (% of Basal)” value is reported as 465 % of Basal. In addition, in data set [4], the “glucose disposal in the rat” value is “enhance glucose disposal”. Further, the “elevation of plasma glucose 30 minutes after IPGTT” value in data set [4] (1 nmole/kg s.c., vehicle: 160 mg/dl above basal, Figure 7) was “significantly reduced”. The “Plasma Glucose (% of Basal) s.c.” value in data set [4] (plasma glucose area under the curve after IPGTT (1 g/kg glucose), % of vehicle, 1 nmol/kg peptide s.c.) was 77 % of Basal.
“HSDGIFTDSYSRYRKQLAAKKYLADVKK [Peptide R3P38]”: the EC50 stood at 2.3 nM at PACAP-R3 [1] and 17 nM at PACAP-R2.
Consider “[K15, R16, L27]VIP(1-7)/GRF(8-27) [Peptide R2P1]”, for which, in data set [6], the “potency in heart rate increase, fold less potent than PACAP27 or maxadilan” value is on record as “at least 10 fold”. Also, the “Plasma Insulin (% of Basal)” value in data set [2] is recorded as 216 % of Basal. For the same molecule, in data set [4] (IPGTT, 1 nmol/kg), the “increases plasma glucose level” value is on record as 14%. The “Plasma Glucose (% of Basal) i.v.” value in data set [4] (setting [7]) is given as 114 % of Basal.
